Test results from paper PMC4522185 (ChemistryOpen, 2015).
Values after ≈ are worked out from the molar mass of the structure shown. Read-outs that look alike come from different tables or passages of the source.

How the values were obtained:
[1] = molecular target: human 20S proteasome (chymotrypsin-like activity, with PA28 activator) (Homo sapiens, UniProt P28074); assay: fluorogenic suc-LLVY-AMC cleavage; assay type: biochemical
physchem [2] = conditions: pbs, pH 7.4, aqueous buffer
physchem [3] = conditions: ch3cn+pbs (1+1), pH 7.4
[4] = molecular target: T1, Mtb 20S open-gate proteasome (Mycobacterium tuberculosis, UniProt P9WHT9); assay: biochemical
T1 sequence (P9WHT9 whole entry): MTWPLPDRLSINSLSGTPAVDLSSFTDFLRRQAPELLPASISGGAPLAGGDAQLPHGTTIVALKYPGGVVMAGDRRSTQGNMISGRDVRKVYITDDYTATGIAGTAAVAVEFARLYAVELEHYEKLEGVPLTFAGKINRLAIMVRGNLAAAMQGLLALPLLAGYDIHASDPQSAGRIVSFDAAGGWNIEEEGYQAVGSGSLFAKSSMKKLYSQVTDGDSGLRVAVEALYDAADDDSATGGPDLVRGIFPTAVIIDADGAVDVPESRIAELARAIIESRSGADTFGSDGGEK
T1 sequence (P9WHU1 whole entry partner): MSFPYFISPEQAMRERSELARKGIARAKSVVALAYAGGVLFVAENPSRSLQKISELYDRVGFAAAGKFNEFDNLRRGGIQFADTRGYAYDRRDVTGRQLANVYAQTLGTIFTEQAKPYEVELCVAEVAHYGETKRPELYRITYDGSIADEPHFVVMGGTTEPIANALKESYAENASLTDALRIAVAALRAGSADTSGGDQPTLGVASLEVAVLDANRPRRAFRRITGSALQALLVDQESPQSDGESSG

physchem [5] = conditions: pbs ph 7.4, pH 7.4
[6] = molecular target: T1, Mtb 20S open-gate proteasome; assay: biochemical; remark: listed apart in the source
physchem [7] = conditions: pbs, pH 7.4, aqueous buffer; remark: listed apart in the source
physchem [8] = conditions: ch3cn+pbs (1+1), pH 7.4; remark: listed apart in the source
[9] = molecular target: T1, Mtb 20S open-gate proteasome; assay: biochemical; remark: listed apart in the source

Sequence of human 20S proteasome (chymotrypsin-like activity, with PA28 activator) (P28074 60-263): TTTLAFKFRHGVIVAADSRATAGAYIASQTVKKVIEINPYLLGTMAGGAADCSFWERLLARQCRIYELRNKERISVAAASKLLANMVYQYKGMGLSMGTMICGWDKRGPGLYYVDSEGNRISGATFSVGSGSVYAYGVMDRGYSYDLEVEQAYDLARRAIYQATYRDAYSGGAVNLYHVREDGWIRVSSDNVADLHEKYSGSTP
Sequence of human 20S proteasome (chymotrypsin-like activity, with PA28 activator) (P25786 whole entry partner): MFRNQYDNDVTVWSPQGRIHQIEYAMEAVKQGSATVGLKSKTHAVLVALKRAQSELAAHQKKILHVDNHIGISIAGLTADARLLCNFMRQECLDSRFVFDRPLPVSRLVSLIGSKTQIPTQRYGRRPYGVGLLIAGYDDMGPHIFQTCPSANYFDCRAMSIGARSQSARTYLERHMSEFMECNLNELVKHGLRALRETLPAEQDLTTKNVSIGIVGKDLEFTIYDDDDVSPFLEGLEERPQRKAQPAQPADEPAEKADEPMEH

O=c1oc(/C=C/c2ccncc2)ns1 [compound 49, (E)-5-(2-(Pyridin-4-yl)vinyl)-1,3,4-oxathiazol-2-one]
IC50 [1]: 77000 nM | solubility at 18 h (physchem [2]): 84.7 µM (≈ 17.5 µg/mL) | remaining at 24 h, 50 µM (physchem [3]): 91.6% | IC50 [4]: 2750 nM

COc1ccc(/C=C/c2nsc(=O)o2)cc1 [compound 28, (E)-5-(4-Methoxystyryl)-1,3,4-oxathiazol-2-one]
IC50 [1]: 8500 nM | remaining at 24 h, 50 µM (physchem [5]): 1.5% | IC50 [6]: 1350 nM

O=c1oc(/C=C/c2cccs2)ns1 [compound 51, (E)-5-(2-(Thiophen-2-yl)vinyl)-1,3,4-oxathiazol-2-one]
IC50 [1]: 18500 nM | solubility at 18 h (physchem [2]): 22.6 µM (≈ 4.77 µg/mL) | remaining at 24 h, 50 µM (physchem [3]): 97.6% | IC50 [4]: 2100 nM

O=c1oc(/C=C/c2ccsc2)ns1 [compound 52, (E)-5-(2-(Thiophen-3-yl)vinyl)-1,3,4-oxathiazol-2-one]
IC50 [1]: 11300 nM | solubility at 18 h (physchem [2]): 19.7 µM (≈ 4.16 µg/mL) | remaining at 24 h, 50 µM (physchem [3]): 99.1% | IC50 [4]: 1150 nM

O=Cc1ccc(/C=C/c2nsc(=O)o2)o1 [compound 53, (E)-5-(2-(2-Oxo-1,3,4-oxathiazol-5-yl)vinyl)furan-2-carbaldehyde]
IC50 [1]: 3300 nM | solubility at 18 h (physchem [2]): 56.1 µM (≈ 12.5 µg/mL) | remaining at 24 h, 50 µM (physchem [3]): 88.9% | IC50 [4]: 735 nM

O=C(c1ccccc1)c1nsc(=O)o1 [compound 19, 5-Benzoyl-1,3,4-oxathiazol-2-one]
IC50 [1]: 2950 nM | solubility at 18 h (physchem [7]): 5.7 µM (≈ 1.18 µg/mL) | remaining at 24 h, 50 µM (physchem [8]): 46.8% | IC50 [9]: 2250 nM
